Where a name gives a salt, the structure may show the parent alone. Read-outs that look alike come from different tables or passages of the source.
Assays:
[1] = system: xenografts of human cancers, including HT-29 and SW-48 colon, PC-3 prostate, MX-1 breast, H460 lung, SKOV3 ovarian and KB epidermoid carcinomas; design: method as in Emerson et al, 1993, 1995; conditions: ref Emerson et al, 1993, 1995; cited from earlier work
[2] = intravenous route; cited from earlier work
[3] = dog, in vivo; cited from earlier work
solid tumour = assay: Tumour response (WHO criteria) in patients; assay type: in vivo, human; conditions: 17 evaluable patients
Source text: British Journal of Cancer (1997) 76(7), 946-951 ? 1997 Cancer Research Campaign The bloavailability of oral Gil 47211 (GG21 1), a new topoisomerase I inhibitor CJH Gerrits', JHM Schellens', GJ Creemers', P Wissel2, ASTh Planting', JF Pritchard2, S DePee2, M de Boer-Dennert', M Harteveld' and J Verweij' 'Department of Medical Oncology, Rotterdam Cancer Institute (Daniel den Hoed Kliniek) and University Hospital, The Netherlands; 2Glaxo Wellcome, Department of Pharmacokinetics, NC, USA Summary Topoisomerase I inhibitors are new compounds of interest for cancer chemotherapy. We performed a study with Gl147211, a new semisynthetic camptothecin analogue, to determine the absolute bioavailability of the drug given orally. […] Gi147211 was given orally on day 1 and as a 30-min infusion daily on days 2-5. The treatment course was repeated every 3 weeks. In subsequent patient cohorts, the dose of the oral formulation was escalated from 1.5 mg m-2 to 6.0 mg m-2; the dose for i.v. administration was fixed at 1.2 mg m-2. Plasma pharmacokinetics was performed on day 1 and 2 of the first course and on day 1 of the second course using a validated high-performance liquid chromatographic assay. […]

[4] = mouse, in vivo; cited from earlier work
[5] = Toxicity assessment (CTC criteria) in patients, oral day 1 + i.v. days 2-5 every 3 weeks; assay type: in vivo, human; conditions: for Abdominal discomfort, drug-related toxicity per course / Diarrhoea, drug-related toxicity per course / Nausea, drug-related toxicity per course / Stomatitis, drug-related toxicity per course: CTC grade 1; for Abdominal discomfort, drug-related toxicity per course / Diarrhoea, drug-related toxicity per course / Nausea, drug-related toxicity per course / Stomatitis, drug-related toxicity per course / Fatigue, drug-related toxicity per course / Vomiting, drug-related toxicity per course: Table 2
Source text: British Journal of Cancer (1997) 76(7), 946-951 ? 1997 Cancer Research Campaign The bloavailability of oral Gil 47211 (GG21 1), a new topoisomerase I inhibitor CJH Gerrits', JHM Schellens', GJ Creemers', P Wissel2, ASTh Planting', JF Pritchard2, S DePee2, M de Boer-Dennert', M Harteveld' and J Verweij' 'Department of Medical Oncology, Rotterdam Cancer Institute (Daniel den Hoed Kliniek) and University Hospital, The Netherlands; 2Glaxo Wellcome, Department of Pharmacokinetics, NC, USA Summary Topoisomerase I inhibitors are new compounds of interest for cancer chemotherapy. We performed a study with Gl147211, a new semisynthetic camptothecin analogue, to determine the absolute bioavailability of the drug given orally. […] Gi147211 was given orally on day 1 and as a 30-min infusion daily on days 2-5. The treatment course was repeated every 3 weeks. In subsequent patient cohorts, the dose of the oral formulation was escalated from 1.5 mg m-2 to 6.0 mg m-2; the dose for i.v. administration was fixed at 1.2 mg m-2. Plasma pharmacokinetics was performed on day 1 and 2 of the first course and on day 1 of the second course using a validated high-performance liquid chromatographic assay. […] Keywords: G1147211 (GG211); bioavailability; topoisomerase I inhibitor; phase I study G1147211 [7-(methylpiperazinomethylene)-10,11-ethylenedioxy- 20(S)-camptothecin dihydrochloride] is a water-soluble semisyn- thetic analogue of camptothecin (CPT). […] Its further development was stopped because of unpredictable and severe myelosuppression, gastro- intestinal toxicity and haemorrhagic cystitis (Gottlieb et al, 1970; Creaven et al, 1972; Muggia et al, 1972). Interest in CPT was renewed in the 1980s, because topoiso- merase I was identified as the single cellular target of CPT (Hsiang et al, 1988 1989), and an overexpression of topoisomerase I was found in various tumour cell lines but not in normal tissues (Giovanella et al, 1989; Hirabayashi et al, 1992). Topoisomerase I is a nuclear enzyme that resolves topological problems of the torsionally strained (supercoiled) DNA by forming a covalent adduct between topoisomerase I and the DNA, termed the cleav- able complex. This catalytic intermediate creates single-strand DNA breaks, allowing the DNA molecule to rotate around the intact DNA strand at the cleavage site, leading to a relaxation of Received 29 November 1996 Revised 27 March 1997 Accepted 1 April 1997 Correspondence to: CJH Gerrits, Department of Medical Oncology, Rotterdam Cancer Institute, (Daniel den Hoed Kliniek) and University Hospital, Groene Hilledijk 301, 3075 EA Rotterdam, The Netherlands the DNA molecule, and in this way replication, transcription and other DNA functions can proceed. These enzyme-bridged breaks are then resealed by topoisomerase I (Champoux, 1976; Muller, 1985; Muller et al, 1985; Camilloni et al, 1989). […] It has been documented that camptothecin (CPT) interferes with the breakage-reunion process of topoiso- merase I by stabilizing the enzyme-DNA cleavable complexes (Liu et al, 1989).

[6] = oral 6.0 mg m-2 level, discussion

## CC[C@@]1(O)C(=O)OCc2c1cc1n(c2=O)Cc2c-1nc1cc3c(cc1c2CN1CCN(C)CC1)OCCO3 [GI147211, 7-(methylpiperazinomethylene)-10,11-ethylenedioxy-20(S)-camptothecin dihydrochloride]
[1]
  activity against xenografts of human cancers: significant cytotoxicity
[2]
  main toxicity in animal toxicology studies: myelosuppression was the main toxicity and was dose limiting
[3]
  absolute bioavailability: 16%
Solid tumour
  best response to treatment: stable disease in seven patients
[4]
  absolute bioavailability: 2-5%
[5]; 6.0 mg m-2 level, the one case with CTC grade IV
  ANC nadir: 9e+07 L⁻¹
[5]; CTC grade I-II anaemia occurred regularly
  courses in which erythrocyte transfusions were given: 24 out of 47
[5]; CTC grade III-IV thrombocytopenia
  platelet count, range: 4-40 x 109 l-1
[5]; Table 2 footnote c
  courses with fatigue CTC grade II: Four
[5]; Total, n = 47 courses
  Abdominal discomfort, drug-related toxicity per course: 6 courses
  Diarrhoea, drug-related toxicity per course: 1 courses
  Nausea, drug-related toxicity per course: 24 courses
  Stomatitis, drug-related toxicity per course: 2 courses
  Fatigue, drug-related toxicity per course: 16 courses
[5]; first two dose levels (1.5 and 3.0 mg m-2 oral)
  myelotoxicity: not observed
[5]; human, in vivo
  duration of severe granulocytopenia, range: 7 to 19 days
  duration of severe thrombocytopenia, range: 3 to 16 days
  median duration of severe granulocytopenia (first occurrence to recovery to CTC grade II): 7 days
  median duration of severe thrombocytopenia (first occurrence to recovery to CTC grade II): 8 days
  nausea and vomiting after oral administration compared with intravenous dosing: not different
  neutropenic sepsis (main serious adverse event): one
  patients complaining of mild fatigue: 34%
  patients with treatment delay because of slow recovery of mild leucopenia: six
  renal and liver toxicity: not reported
[5]; human, in vivo, po
  diarrhoea after a single oral administration: did not result in diar- rhoea
  tolerability of oral administration: well tolerated
[5]; of 47 courses
  courses with mild leucopenia CTC grade I-II: 17 courses
  mild leucopenia CTC grade I-II, share of courses: 36.2%
  nausea CTC grade I, share of courses: 51.6%
  vomiting CTC grade I, number of courses: 9 courses
  vomiting CTC grade I, share of courses: 19.1%
[5]; one patient
  reversible CTC grade I peripheral neuropathy: 2.1%
[5]; [6]
  day of the platelet nadir: 8 days
  day of the platelet nadir, range: 3 to 16 days
[5]; oral 6.0 mg m-2 day 1 + i.v. 1.2 mg m-2 days 2-5, discussion
  onset of neutropenia CTC grade III-IV: 7 to 19 days
[5]; oral dose level 1.5 mg m-2
  Abdominal discomfort, drug-related toxicity per course: 0 courses
  Diarrhoea, drug-related toxicity per course: 0 courses
  Nausea, drug-related toxicity per course: 4 courses
  Stomatitis, drug-related toxicity per course: 0 courses
  Fatigue, drug-related toxicity per course: 4 courses
  Vomiting, drug-related toxicity per course: 2 courses
[5]; oral dose level 3.0 mg m-2
  Abdominal discomfort, drug-related toxicity per course: 3 courses
  Diarrhoea, drug-related toxicity per course: 0 courses
  Nausea, drug-related toxicity per course: 4 courses
  Stomatitis, drug-related toxicity per course: 1 courses
  Fatigue, drug-related toxicity per course: 2 courses
  Vomiting, drug-related toxicity per course: 2 courses
[5]; oral dose level 6.0 mg m-2
  courses postponed for 1 week because of mild leucopenia with slow recovery: 10 out of 30
  courses with CTC grade III-IV granulocytopenia: 5 out of 30
  courses with CTC grade III-IV thrombocytopenia: 4 out of 30
  Abdominal discomfort, drug-related toxicity per course: 3 courses
  Diarrhoea, drug-related toxicity per course: 1 courses
  Nausea, drug-related toxicity per course: 16 courses
  Stomatitis, drug-related toxicity per course: 1 courses
  Fatigue, drug-related toxicity per course: 10 courses
  Vomiting, drug-related toxicity per course: 7 courses
[5]; six courses
  abdominal discomfort, mostly cramping, share of courses: 13%
[5]; summary
  nadir for neutropenia: 8 days
  nadir for thrombocytopenia: 15 days
[5]; three patients
  alopecia grade I, share of patients: 17%
[5]; three patients with CTC grade III-IV thrombocytopenia
  median platelet count: 2.5e+10 L⁻¹
[5]; two courses, not dose dependent
  mild headache, share of courses: 4.2%
[5]; two cycles
  vomiting CTC grade II, share of cycles: 4.2%

— publication PMC2228077, “The bioavailability of oral GI147211 (GG211), a new topoisomerase I inhibitor” (British Journal of Cancer, 1997)
